Data as given in paper PMC9988962 (Scientific Reports, 2023).
Values after ≈ are worked out from the molar mass of the structure shown. Residues, ends and D or L forms follow the SMILES beside them. *: point of attachment. NH(β-GlcNAc) = CC(=O)N[C@@H]1[C@@H](O)[C@H](O)[C@@H](CO)O[C@H]1N*

Columns and labels:
[1] = tested on: Acinetobacter baumannii ATCC 17,978; assay: microbe, parasite or virus in culture
Procedure: (§1) Starting from a peptide stock solution, two-fold serial dilutions were sequentially carried out, accordingly to the broth microdilution method. Following over-night incubation, MIC100 values were determined as the lowest peptide concentration needed for no visible bacterial growth.

[2] = tested on: Bacillus globigii TNO BMO13; assay: microbe, parasite or virus in culture
Procedure: as §1

Bacillus subtilis 6633 = assay: microbe, parasite or virus in culture
Procedure: as §1

[3] = tested on: Escherichia coli ATCC 25,922; assay: microbe, parasite or virus in culture
Procedure: as §1

[4] = tested on: Klebsiella pneumoniae ATCC 700,603; assay: microbe, parasite or virus in culture
Procedure: as §1

MRSA WKZ-2 = assay: microbe, parasite or virus in culture
Procedure: as §1

[5] = tested on: Pseudomonas aeruginosa 01; assay: microbe, parasite or virus in culture
Procedure: as §1

[6] = tested on: Staphylococcus aureus ATCC 29,213; assay: microbe, parasite or virus in culture
Procedure: as §1

[7] = tested on: Escherichia coli ATCC 25,922; conditions: E. coli ATCC 25,922; peptide incubated in water without proteases or serum
Procedure: as §1
(§2) To analyze the stability of the peptides to the proteases, 100 μM of LL-III and glycosylated LL-III were incubated with 100 nM of α-chymotrypsin or pepsin at 37 °C for 15 min and then antimicrobial activity were assayed as reported above. The peptide solution without proteases was used as the control group.
(§3) For comparison, the MIC values of untreated peptides (incubated in water) were also determined.

[8] = tested on: Escherichia coli ATCC 25,922; conditions: for MIC after treatment with pepsin / MIC after treatment with α-chymotrypsin: E. coli ATCC 25,922, 37 °C, 15 min, then MIC; for MIC after treatment with pepsin: 100 μM peptide incubated with 100 nM pepsin; for MIC after treatment with α-chymotrypsin: 100 μM peptide incubated with 100 nM α-chymotrypsin
Procedure: as §1, §2

[9] = tested on: Escherichia coli ATCC 25,922; conditions: E. coli ATCC 25,922; 200 μM peptide solution with fetal bovine serum 1:1 (v/v), 24 h, 37 °C, then MIC
Procedure: as §1, §3

[10] = tested on: BALB/c 3T3 cells (normal murine fibroblasts); conditions: BALB/c 3T3, two-fold dilutions of peptide, 24 h, 37 °C, 5% CO2, three independent experiments
Procedure: In brief, 5·10^3 cells were seeded on a 96-well plate and after 16 h treated with increasing concentrations of peptides for 24 h at 37 °C and 5% CO2. Cell viability was analyzed by performing the (3-(4,5-dimethylthiazol-2-yl)-2,5 diphenyltetrazolium bromide) reduction inhibition assay (MTT assay)[42].
Normal and transformed murine fibroblasts, 3T3 and SVT2, were treated with increasing concentration of the two peptides. After 24 h of incubation at 37 °C and 5% CO2, cells mitochondrial activity was measured performing MTT assay.

[11] = Acinetobacter baumannii ATCC 17,978, 1 × 10^6 CFU/mL, 0.5X Nutrient Broth, over-night, MIC100
[12] = Bacillus globigii TNO BMO13, 1 × 10^6 CFU/mL, 0.5X Nutrient Broth, over-night, MIC100
[13] = Bacillus subtilis 6633, 1 × 10^6 CFU/mL, 0.5X Nutrient Broth, over-night, MIC100
[14] = Escherichia coli ATCC 25,922, 1 × 10^6 CFU/mL, 0.5X Nutrient Broth, over-night, MIC100
[15] = Klebsiella pneumoniae ATCC 700,603, 1 × 10^6 CFU/mL, 0.5X Nutrient Broth, over-night, MIC100
[16] = MRSA WKZ-2, 1 × 10^6 CFU/mL, 0.5X Nutrient Broth, over-night, MIC100
[17] = Pseudomonas aeruginosa 01, 1 × 10^6 CFU/mL, 0.5X Nutrient Broth, over-night, MIC100
[18] = Staphylococcus aureus ATCC 29,213, 1 × 10^6 CFU/mL, 0.5X Nutrient Broth, over-night, MIC100
[19] = from MIC values against E. coli after 15 min at 37 °C with protease

SMILES	MIC [1, 11]	MIC [2, 12]	MIC (Bacillus subtilis 6633; [13])	MIC [3, 14]	MIC [4, 15]	MIC (MRSA WKZ-2; [16])	MIC [5, 17]	MIC [6, 18]	MIC after treatment in water (control) [7]	MIC after treatment with pepsin [8]	MIC after treatment with α-chymotrypsin [8]	MIC after treatment with 50% FBS [9]	also measured
O=C(O)c1cn(C2CC2)c2cc(N3CCNCC3)c(F)cc2c1=O [Ciprofloxacin]	–	–	–	–	–	–	–	–	–	–	–	–	MIC ([1]; Acinetobacter baumannii): 0.15 µM (≈ 0.0497 µg/mL); MIC ([2]; Bacillus subtilis, TNOBMO13): 0.3 µM (≈ 0.0994 µg/mL); MIC (Bacillus subtilis 6633; Bacillus subtilis, 6633): 0.15 µM (≈ 0.0497 µg/mL); MIC ([3]; Escherichia coli): 0.15 µM (≈ 0.0497 µg/mL); MIC ([4]; Klebsiella pneumoniae): 1.2 µM (≈ 0.398 µg/mL); MIC (MRSA WKZ-2; Staphylococcus aureus, MRSA): 0.3 µM (≈ 0.0994 µg/mL); MIC ([5]; Pseudomonas aeruginosa, 01): 0.3 µM (≈ 0.0994 µg/mL); MIC ([6]; Staphylococcus aureus, ATCC29): 0.6 µM (≈ 0.199 µg/mL)
CC[C@H](C)[C@H](NC(=O)[C@H](CCCCN)NC(=O)[C@H](CCCCN)NC(=O)[C@H](Cc1c[nH]c2ccccc12)NC(=O)[C@H](CC(N)=O)NC(=O)[C@@H](N)C(C)C)C(=O)N[C@@H](CC(C)C)C(=O)NCC(=O)N[C@@H](CCCCN)C(=O)N[C@H](C(=O)N[C@H](C(=O)N[C@@H](CCCCN)C(=O)N[C@H](C(=O)N[C@H](C(=O)N[C@@H](CCCCN)C(N)=O)C(C)C)C(C)C)[C@@H](C)CC)[C@@H](C)CC [LL-III, Lasioglossin III] (H-VNWKKILGKIIKVVK-NH2)	3.12 µM (≈ 5.51 µg/mL)	1.56 µM (≈ 2.75 µg/mL)	1.56 µM (≈ 2.75 µg/mL)	3.12 µM (≈ 5.51 µg/mL)	3.12 µM (≈ 5.51 µg/mL)	3.12 µM (≈ 5.51 µg/mL)	1.56 µM (≈ 2.75 µg/mL)	1.56 µM (≈ 2.75 µg/mL)	3.12 µM (≈ 5.51 µg/mL)	12.5 µM	25 µM	6.25 µM	–
CC[C@H](C)[C@H](NC(=O)[C@H](CCCCN)NC(=O)[C@H](CCCCN)NC(=O)[C@H](Cc1c[nH]c2ccccc12)NC(=O)[C@H](CC(=O)N[C@@H]1O[C@H](CO)[C@@H](O)[C@H](O)[C@H]1NC(C)=O)NC(=O)[C@@H](N)C(C)C)C(=O)N[C@@H](CC(C)C)C(=O)NCC(=O)N[C@@H](CCCCN)C(=O)N[C@H](C(=O)N[C@H](C(=O)N[C@@H](CCCCN)C(=O)N[C@H](C(=O)N[C@H](C(=O)N[C@@H](CCCCN)C(N)=O)C(C)C)C(C)C)[C@@H](C)CC)[C@@H](C)CC [g-LL-III] (H-VD(NH(β-GlcNAc))WKKILGKIIKVVK-NH2)	3.12 µM (≈ 6.14 µg/mL)	1.56 µM (≈ 3.07 µg/mL)	1.56 µM (≈ 3.07 µg/mL)	3.12 µM (≈ 6.14 µg/mL)	3.12 µM (≈ 6.14 µg/mL)	3.12 µM (≈ 6.14 µg/mL)	3.12 µM (≈ 6.14 µg/mL)	1.56 µM (≈ 3.07 µg/mL)	3.12 µM (≈ 6.14 µg/mL)	6.25 µM	6.25 µM	3.12 µM	reduction of susceptibility to pepsin versus parental peptide [8, 19]: 2 times; reduction of susceptibility to α-chymotrypsin versus parental peptide [8, 19]: 4 times; cell viability (MTT), g-LL-III compared with LL-III [10]: no significant differences
